In US20200405687A1, “METHODS FOR THE TREATMENT OF INFECTION” (Corbus Pharmaceuticals, Inc., priority 2016, published 2020):

System: UV-killed Escherichia coli
Assay: Skin challenge (blister) model, intradermal UV-killed E. coli in healthy volunteers (Example 3)
Format: in vivo, humans
Protocol: The ability of administration of a pharmaceutical composition including ajulemic acid to treat infection was assayed in a skin challenge model. A self-resolving acute inflammatory response was triggered by the intradermal injection of UV-killed Escherichia coli into the forearm of healthy volunteers. […] This study was performed to determine whether ajulemic acid promotes the resolution of infection at the site of inflammation, thereby treating that infection.
Cells and exudates were harvested at several time points following injection of UV-killed E. coli by applying negative pressure over the inflamed site.
The study included four experimental groups (n=10 in each group): • 1) Placebo, twice daily for four days • 2) Ajulemic acid, 5 mg, twice daily for four days • 3) Ajulemic acid, 20 mg, twice daily for four days • 4) Prednisone, 15 mg daily for four days
The volunteer (healthy males, 18-50 years) were randomly allocated to one of the above three groups and orally administered the test drug for four consecutive days. On the morning of the fourth day (after intake of the first dose), experimental acute inflammation was elicited by infection with UV-killed E. coli. The drug and the placebo were provided as capsules.
UV killed E. coli (Strain: NCTC 10418, Source: Public Health England, UK) were prepared as follows. E. coli described were grown overnight in Luria Broth (Sigma) at 37° C. The next morning, the bacteria were washed twice in sterile PBS (2500 g, 20 min, 4° C.) and resuspended in a sterile petri dish.
Bacteria were then killed by exposure to an ultraviolet light (UV) source (302 nm, ChemiDoc, trans-UV mode; Bio-Rad laboratories) for 60 min and then washed again in sterile saline. Bacterial counts were determined by optical density (OD600=0.365 equates to […] E. coli/ml). UVKEc were resuspended in a volume of sterile saline to obtain the count of 1.5×10^8/ml, aliquoted into sterile eppendorf tubes and then frozen at −80° C. until used for injections.
After disinfecting and shaving the skin, 1.5×10^7 UVKEc in 100 μl saline were injected intradermally into a marked site on the volar aspect of each forearm. To characterize the treatment of infection using ajulemic acid, each forearm was allotted to one of the predefined time-points namely 4, 8, 14, 24, 48 or 72 hours (h). Thus the effects of intradermal injection of UVKEc were allowed to progress for the duration of the time-point after which a suction blister was raised over the marked injection site, and then aspirated immediately. In summary, volunteer had two injection sites, one on each forearm, and contributed to two time points. On a separate group of volunteers, blister was raised on the naïve skin and treated as the baseline time point. Study time-points were discussed with volunteers before consenting.
Laser Doppler Imager (moor LDI-HIR, Moor Instruments Ltd, Axminster, Devon, UK) was used to quantify the blood flow at the site of infection. At predefined time points after injection of UVKEc, the forearm was placed under the scanner at a fixed distance to scan a fixed area. The scanner emits a laser beam, a portion of which is scattered by red blood cells present at the inflamed area. The scattering causes a change in frequency of the reflected light which is then detected by a photo detector. The velocity and concentration of red blood cells at the site directly affect the Doppler frequency shifts and account for the signal strength measured in arbitrary perfusion units. […] The total blood flow (measured in perfusion units) was calculated as product of number of valid pixels above background signal (Cut-off=300 perfusion units) and the mean blood flow signal over the valid pixels 11, 12.
To obtain the exudate from the site of infection, a 10 mm diameter suction blister was induced directly over the site of injection. […]

## C[C@]12C=CC(=O)C=C1CC[C@@H]1[C@@H]2C(=O)C[C@@]2(C)[C@H]1CC[C@]2(O)C(=O)CO [prednisone, reference compound]
After UVKEc triggered acute inflammation, multiple time points
  rise in C-reactive protein (CRP) levels in serum: does appear to inhibit the rise in CRP
Ajulemic acid 5 mg or 20 mg BID, prednisone 15 mg daily, 4 h and 10 h, relative to placebo
  infiltration of neutrophils at the site of inflammation (blister exudate): decrease in the infiltration of neutrophils
Ajulemic acid 5 mg or 20 mg BID, prednisone 15 mg daily, 4 hr and 10 hr, limulus amoebocyte lysate test
  levels of endotoxin at the site of injection: appears to increase the levels of endotoxin
Prednisone 15 mg daily, four days
  bacterial clearance: does not increase bacterial clearance and may slow the rate of bacterial clearance
